The text below walks through data of ChEMBL document CHEMBL5727600, “1,4-dicarbonyl-piperidyl derivatives” (2020).

What is called IC50 is the midpoint of a concentration-inhibition curve.

Assay [1] concerns the target T1, Poly [ADP-ribose] polymerase tankyrase-2 (Homo sapiens, UniProt Q9H2K2).
T1 sequence (Q9H2K2 whole entry): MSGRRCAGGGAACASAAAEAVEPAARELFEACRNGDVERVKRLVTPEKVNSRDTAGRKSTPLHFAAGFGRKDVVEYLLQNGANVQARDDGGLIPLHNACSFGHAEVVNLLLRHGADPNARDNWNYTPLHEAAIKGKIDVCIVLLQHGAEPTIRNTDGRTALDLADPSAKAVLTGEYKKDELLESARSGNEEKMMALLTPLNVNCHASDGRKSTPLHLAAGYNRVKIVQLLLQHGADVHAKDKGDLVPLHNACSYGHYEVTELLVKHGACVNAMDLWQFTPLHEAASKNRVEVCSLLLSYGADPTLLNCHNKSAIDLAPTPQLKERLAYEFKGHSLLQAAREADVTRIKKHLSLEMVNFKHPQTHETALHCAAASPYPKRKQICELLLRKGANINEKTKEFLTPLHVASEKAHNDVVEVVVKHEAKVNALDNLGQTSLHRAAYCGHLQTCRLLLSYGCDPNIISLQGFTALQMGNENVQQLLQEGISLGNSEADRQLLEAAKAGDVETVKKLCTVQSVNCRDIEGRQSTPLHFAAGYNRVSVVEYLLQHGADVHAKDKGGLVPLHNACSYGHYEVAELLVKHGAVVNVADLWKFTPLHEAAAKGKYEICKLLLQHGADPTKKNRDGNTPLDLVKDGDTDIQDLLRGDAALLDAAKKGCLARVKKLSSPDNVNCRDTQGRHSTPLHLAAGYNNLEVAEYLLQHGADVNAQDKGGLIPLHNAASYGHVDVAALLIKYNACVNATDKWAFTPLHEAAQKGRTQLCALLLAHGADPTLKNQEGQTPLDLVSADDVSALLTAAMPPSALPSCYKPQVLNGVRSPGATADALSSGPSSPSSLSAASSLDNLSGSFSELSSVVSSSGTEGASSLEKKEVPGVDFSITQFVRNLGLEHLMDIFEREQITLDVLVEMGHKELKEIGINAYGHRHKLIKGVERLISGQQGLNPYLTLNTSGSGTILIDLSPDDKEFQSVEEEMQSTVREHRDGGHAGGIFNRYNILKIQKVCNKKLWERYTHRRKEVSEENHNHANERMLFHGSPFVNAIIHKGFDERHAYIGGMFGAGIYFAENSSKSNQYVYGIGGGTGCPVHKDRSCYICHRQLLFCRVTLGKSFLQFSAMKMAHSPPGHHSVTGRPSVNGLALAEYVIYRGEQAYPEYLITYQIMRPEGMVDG
Nature of the assay: Biochemical Activity Assay: TNKS 1 and 2: The activity ELISA is performed in 384 well Glutathione coated microtiter plates (Express capture Glutathione coated plate, Biocat, Heidelberg, Germany). The plates are pre-equilibrated with PBS. Then the plates are incubated with 50 μl 20 ng/well GST-tagged Tnks-1 (1023-1327 aa, prepared in-house), respectively GST-tagged Tnks-2 (873-1166 aa, prepared …. (In an ELISA, binding on a coated surface is turned into a signal by an enzyme label.)

In assay [2] the target is T2, Poly [ADP-ribose] polymerase tankyrase-1 (Homo sapiens, UniProt O95271).
T2 sequence (O95271 whole entry): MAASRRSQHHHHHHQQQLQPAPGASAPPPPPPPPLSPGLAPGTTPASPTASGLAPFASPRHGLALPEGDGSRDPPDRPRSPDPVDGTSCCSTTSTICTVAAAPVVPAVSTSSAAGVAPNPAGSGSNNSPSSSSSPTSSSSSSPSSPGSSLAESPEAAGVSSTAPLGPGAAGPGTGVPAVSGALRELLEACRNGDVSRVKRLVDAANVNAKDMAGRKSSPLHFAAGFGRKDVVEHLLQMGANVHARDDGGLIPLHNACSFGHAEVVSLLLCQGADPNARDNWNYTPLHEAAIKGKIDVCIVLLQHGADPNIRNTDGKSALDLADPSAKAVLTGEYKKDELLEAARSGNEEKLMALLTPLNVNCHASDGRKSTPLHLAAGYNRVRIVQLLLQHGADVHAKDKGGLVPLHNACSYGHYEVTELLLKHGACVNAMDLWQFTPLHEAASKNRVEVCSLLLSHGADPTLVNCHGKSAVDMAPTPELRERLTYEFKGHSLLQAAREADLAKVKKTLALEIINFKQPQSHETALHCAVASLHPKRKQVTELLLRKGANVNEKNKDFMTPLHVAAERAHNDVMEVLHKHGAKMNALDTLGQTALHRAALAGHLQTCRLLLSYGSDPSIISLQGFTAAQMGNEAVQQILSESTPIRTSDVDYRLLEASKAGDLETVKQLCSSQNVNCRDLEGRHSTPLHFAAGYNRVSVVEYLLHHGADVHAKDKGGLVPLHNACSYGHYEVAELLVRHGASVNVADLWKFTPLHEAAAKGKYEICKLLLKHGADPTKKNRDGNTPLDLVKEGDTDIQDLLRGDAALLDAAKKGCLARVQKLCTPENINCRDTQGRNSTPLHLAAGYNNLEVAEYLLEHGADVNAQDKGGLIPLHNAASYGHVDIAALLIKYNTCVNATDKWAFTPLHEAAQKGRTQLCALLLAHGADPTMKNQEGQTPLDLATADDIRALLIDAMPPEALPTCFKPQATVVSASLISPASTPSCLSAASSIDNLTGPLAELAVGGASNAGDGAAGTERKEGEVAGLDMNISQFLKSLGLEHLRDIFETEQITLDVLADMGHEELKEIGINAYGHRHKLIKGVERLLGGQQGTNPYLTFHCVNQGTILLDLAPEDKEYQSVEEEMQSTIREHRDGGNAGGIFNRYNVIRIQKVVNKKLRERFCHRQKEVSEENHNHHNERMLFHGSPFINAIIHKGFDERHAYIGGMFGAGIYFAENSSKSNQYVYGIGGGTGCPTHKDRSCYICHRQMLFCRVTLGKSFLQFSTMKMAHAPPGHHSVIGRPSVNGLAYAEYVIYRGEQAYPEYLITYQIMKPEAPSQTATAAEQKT
The experiment in a line: Biochemical Activity Assay: TNKS 1 and 2: The activity ELISA is performed in 384 well Glutathione coated microtiter plates (Express capture Glutathione coated plate, Biocat, Heidelberg, Germany). The plates are pre-equilibrated with PBS. Then the plates are incubated with 50 μl 20 ng/well GST-tagged Tnks-1 (1023-1327 aa, prepared in-house), respectively GST-tagged Tnks-2 (873-1166 aa, prepared in-house) in assay buffer (50 mM HEPES, 4 mM Mg-chloride, 0.05% Pluronic F-68, 2 mM DTT, pH 7.7) overnight at 4° C. The plates are washed 3 times with PBS-Tween-20. The wells are blocked by incubation at room temperature for 20 minutes with 50 μl blocking buffer (PBS, 0.05% Tween-20, 0.5% BSA). Afterwards the plates are washed 3 times with PBS-Tween-20. The enzymatic reaction is performed in 50 μl reaction solution (50 mM HEPES, 4 mM Mg-chloride, 0.05% Pluronic F-68, 1.4 mM DTT, 0.5% DMSO, pH 7.7) with 10 μM bio-NAD (Biolog, Life science Inst., Bremen, Germany) as co-substrate in the absence or presence of the test compound (10 dilution concentrations) for 1 hour at 30° C. The reaction is stopped by 3 times washing with PBS-Tween-20. For the detection 50 μl of 20 ng/μl Streptavidin, HRP conjugate (MoBiTec, Göttingen, Germany) in PBS/0.05% Tween-20/0.01% BSA are added and the plates are incubated for 30 minutes at room temperature. […].

With `Cc1cc(F)cc2c(=O)[nH]c(C[C@@H](C)CC(=O)N3CCC(C(=O)c4cnn(C)c4)CC3)nc12`, the figures for the IC50 in assay [1] and in assay [2] were 0.59 nM and 0.66 nM, respectively.
Turning to `Cc1cc(F)cc2c(=O)[nH]c(C[C@H](C)CC(=O)N3CCC(C(=O)c4cnn(C)c4)CC3)nc12`, the half-maximal inhibitory concentration (IC50) in assay [1] was 0.2 nM; in assay [2], 0.31 nM.
